Laboratory results as given in patent US7037905B2, “Pharmaceutical use of boronic acids and esters thereof” (Novo Nordisk A/S, priority 2002, dated 2006).

Experiments:
[1] = molecular target: T1, hormone sensitive lipase (Homo sapiens, UniProt Q05469); experiment: TEST 3190.1 HSL-FL: percent inhibition of hormone sensitive lipase at 10 μM, fluorochrome-labeled triacylglyceride emulsion; type: biochemical; conditions: 10 μM sample concentration; percent activity relative to a non-inhibited sample; 30 min preincubation 25° C., 120 min at 37° C.
T1 sequence (Q05469 1-1076): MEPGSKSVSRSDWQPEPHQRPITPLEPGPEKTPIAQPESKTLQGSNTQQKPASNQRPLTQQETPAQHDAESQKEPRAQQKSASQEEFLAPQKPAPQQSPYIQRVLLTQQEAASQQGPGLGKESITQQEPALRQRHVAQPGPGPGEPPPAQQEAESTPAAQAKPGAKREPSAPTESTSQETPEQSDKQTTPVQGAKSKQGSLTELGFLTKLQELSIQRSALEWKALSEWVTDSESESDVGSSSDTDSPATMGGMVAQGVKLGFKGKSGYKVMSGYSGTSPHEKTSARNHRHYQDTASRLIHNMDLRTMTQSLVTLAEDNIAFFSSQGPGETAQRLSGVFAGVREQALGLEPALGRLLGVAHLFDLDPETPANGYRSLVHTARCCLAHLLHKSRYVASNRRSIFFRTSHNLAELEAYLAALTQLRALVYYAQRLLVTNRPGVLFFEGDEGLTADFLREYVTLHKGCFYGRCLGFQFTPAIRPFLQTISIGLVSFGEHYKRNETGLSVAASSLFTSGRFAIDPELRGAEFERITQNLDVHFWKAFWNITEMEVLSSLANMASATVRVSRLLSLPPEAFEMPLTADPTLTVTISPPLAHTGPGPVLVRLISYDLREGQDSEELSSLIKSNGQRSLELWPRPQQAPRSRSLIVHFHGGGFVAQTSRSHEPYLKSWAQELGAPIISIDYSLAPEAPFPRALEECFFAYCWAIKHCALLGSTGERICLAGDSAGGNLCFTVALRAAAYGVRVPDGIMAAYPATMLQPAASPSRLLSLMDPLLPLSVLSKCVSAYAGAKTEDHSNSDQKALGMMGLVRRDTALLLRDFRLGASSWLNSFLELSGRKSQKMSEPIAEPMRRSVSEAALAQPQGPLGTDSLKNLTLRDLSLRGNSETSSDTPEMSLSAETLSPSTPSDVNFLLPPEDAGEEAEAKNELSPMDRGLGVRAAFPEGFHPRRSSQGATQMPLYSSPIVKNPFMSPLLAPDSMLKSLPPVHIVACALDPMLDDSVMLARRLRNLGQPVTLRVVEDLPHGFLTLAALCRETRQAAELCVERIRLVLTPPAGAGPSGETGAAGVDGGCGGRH
Description: 3190.1: Assay for determination of percent inhibition of hormone sensitive lipase by compound at 10 μM sample concentration.
A lipid emulsion with fluorochrome-labeled triacylglyceride and phospholipid is used as substrate with a standard concentration of highly purified HSL (12 μg/mL initial concentration corresponding to 600 ng/mL final concentration). BSA is added as product receptor. The transfer of the fluorochrome from the lipid phase to the water (BSA) phase changes the fluorescent properties of the fluorochrome. The changes can be monitored on a fluorimeter with an excitation wavelength of 450 nm and an emission wavelength of 545 nm.
Compound and HSL (2 μL compound, 10 μL enzyme and 70 μL PED-BSA buffer) is pre-incubated for 30 min at 25° C. before addition of substrate (100 μL). Amount of formed product is measured after 120 min incubation at 37° C.
Results are given as percent activity relative to a non-inhibited sample (no compound).

[2] = molecular target: T2, HSL (Homo sapiens, UniProt Q05469); experiment: TEST 3180.2 HSL: percent inhibition at 10 μM, 3H-Triolein lipid emulsion; type: biochemical; conditions: 10 μM concentration; percent activity relative to an un-inhibited sample; 30 min preincubation, 30 min reaction at 25° C.; read-out: TEST 3180.2 HSL Activity (%)
T2 sequence (Q05469 1-1076): T1 sequence (Q05469 1-1076)

| Structure (SMILES) | activity at 10 µM [1] | activity at 10 µM [2] |
| --- | --- | --- |
| CC1(C)OB(c2ccc(Cl)s2)OC1(C)C [Example 1, 2-(5-Chlorothiophen-2-yl)-4,4,5,5-tetramethyl-[1,3,2]dioxaborolane] | 17% |  |
| Clc1ccc(B2OCCNCCO2)s1 [Example 3, 2-(5-Chlorothiophen-2-yl)-[1,3,6,2]dioxazaborocane] | 19% |  |
| Fc1cc(F)cc(B2OCCNCCO2)c1 [Example 4, 2-(3,5-Difluorophenyl)-[1,3,6,2]dioxazaborocane] | 32% |  |
| Brc1cccc(B2OCCNCCO2)c1 [Example 5, 2-(3-Bromophenyl)-[1,3,6,2]dioxazaborocane] | 34% |  |
| Clc1cccc(B2OCCNCCO2)c1 [Example 6, 2-(3-Chlorophenyl)-[1,3,6,2]dioxazaborocane] | 36% |  |
| Fc1cccc(B2OCCNCCO2)c1 [Example 7, 2-(3-Fluorophenyl)-[1,3,6,2]dioxazaborocane] | 80% |  |
| FC(F)(F)c1cccc(B2OCCNCCO2)c1 [Example 8, 2-(3-Trifluoromethylphenyl)-[1,3,6,2]dioxazaborocane] | 29% |  |
| Fc1cc(B2OCCNCCO2)cc(F)c1F [Example 9, 2-(3,4,5-Trifluorophenyl)-[1,3,6,2]dioxazaborocane] | 32% |  |
| COc1ccc(Cl)cc1B1OCCNCCO1 [Example 12, 2-(5-Chloro-2-methoxyphenyl)-[1,3,6,2]dioxazaborocane] | 39% |  |
| FC(F)(F)Oc1cccc(B2OCCNCCO2)c1 [Example 13, 2-(3-Trifluoromethoxyphenyl)-[1,3,6,2]dioxazaborocane] | 26% |  |
| Clc1cc(Cl)cc(B2OCCNCCO2)c1 [Example 14, 2-(3,5-Dichlorophenyl)-[1,3,6,2]dioxazaborocane] | 40% |  |
| Fc1ccc(B2OCCNCCO2)cc1Cl [Example 15, 2-(3-Chloro-4-fluorophenyl)-[1,3,6,2]dioxazaborocane] | 39% |  |
| CC1(C)OB(c2cccc(Br)c2)OC1(C)C [Example 25, 2-(3-Bromophenyl)-4,4,5,5-tetramethyl-[1,3,2]dioxaborolane] | 28% |  |
| CC1(C)OB(c2cccc(OC(F)(F)F)c2)OC1(C)C [Example 27, 4,4,5,5-Tetramethyl-2-(3-trifluoromethoxyphenyl)-[1,3,2]dioxaborolane] | 29% |  |
| CC1(C)OB(c2cc(Cl)cc(Cl)c2)OC1(C)C [Example 28, 2-(3,5-Dichlorophenyl)-4,4,5,5-tetramethyl-[1,3,2]dioxaborolane] | 43% |  |
| CC1(C)OB(c2ccc(F)c(Cl)c2)OC1(C)C [Example 29, 2-(3-Chloro-4-fluorophenyl)-4,4,5,5-tetramethyl-[1,3,2]dioxaborolane] | 36% |  |
| CC1(C)OB(c2cccc(Cl)c2)OC1(C)C [Example 30, 2-(3-Chlorophenyl)-4,4,5,5-tetramethyl-[1,3,2]dioxaborolane] | 40% |  |
| CC1(C)OB(c2cccc(C(F)(F)F)c2)OC1(C)C [Example 31, 4,4,5,5-Tetramethyl-2-(3-trifluoromethylphenyl)-[1,3,2]dioxaborolane] | 27% |  |
| OB(O)c1ccc(Cl)c(Cl)c1 [Example 74, 3,4-Dichlorophenylboronic acid] | 53% |  |
| OB(O)c1ccc2[nH]ccc2c1 [Example 75, 5-INDOLYL BORONIC ACID] | 100% |  |
| O=Cc1cccc(B(O)O)c1 [Example 76, 3-Formylphenylboronic acid] | 80% |  |
| CN(C)C(=O)c1ccc(B(O)O)cc1 [Example 77, 4-(N,N-DIMETHYLCARBAMOYL)PHENYLBORONIC ACID] | 98% |  |
| OB(O)c1ccco1 [Example 93, Furan-2-boronic acid] |  | 89% |
| OB(O)c1ccc(Cl)s1 [Example 94, 5-Chlorothiophene-2-boronic acid] |  | 17% |
| N#Cc1ccc(B(O)O)s1 [Example 95, 5-Cyanothiophene-2-boronic acid] |  | 49% |
| CC(=O)c1ccc(B(O)O)s1 [Example 96, 5-Acetylthiophene-2-boronic acid] |  | 68% |
| OB(O)c1cccs1 [Example 97, Thiophene-2-boronic acid] |  | 66% |
| OB(O)c1sccc1Br [Example 98, 3-Bromothiophene-2-boronic acid] |  | 84% |

Now from value to compound:

| activity at 10 µM [1] | activity at 10 µM [2] | Structure (SMILES) |
| --- | --- | --- |
| 17% |  | CC1(C)COB(c2ccc(Cl)s2)OC1 [Example 2, 2-(5-Chlorothiophen-2-yl)-5,5-dimethyl-[1,3,2]dioxaborinane] |
| 39% |  | CC1(C)COB(c2cccc(Cl)c2)OC1 [Example 10, 2-(3-Chlorophenyl)-5,5-dimethyl-[1,3,2]dioxaborinane] |
| 31% |  | CC1(C)COB(c2cccc(C(F)(F)F)c2)OC1 [Example 11, 5,5-Dimethyl-2-(3-trifluoromethylphenyl)-[1,3,2]dioxaborinane] |
| 61% |  | Cc1csc(B2OCCNCCO2)c1 [Example 16, 2-(4-Methylthiophen-2-yl)-[1,3,6,2]dioxazaborocane] |
| 11% |  | CC1(C)COB(c2cccc(Br)c2)OC1 [Example 17, 2-(3-Bromophenyl)-5,5-dimethyl-[1,3,2]dioxaborinane] |
| 43% |  | COc1ccc(Cl)cc1B1OCC(C)(C)CO1 [Example 18, 2-(5-Chloro-2-methoxyphenyl)-5,5-dimethyl-[1,3,2]dioxaborinane] |
| 49% |  | CC1(C)COB(c2cc(F)c(F)c(F)c2)OC1 [Example 19, 5,5-Dimethyl-2-(3,4,5-trifluorophenyl)-[1,3,2]dioxaborinane] |
| 27% |  | CC1(C)COB(c2cccc(OC(F)(F)F)c2)OC1 [Example 20, 5,5-Dimethyl-2-(3-trifluoromethoxyphenyl)-[1,3,2]dioxaborinane] |
| 42% |  | CC1(C)COB(c2cc(Cl)cc(Cl)c2)OC1 [Example 21, 2-(3,5-Dichlorophenyl)-5,5-dimethyl-[1,3,2]dioxaborinane] |
| 31% |  | CC1(C)COB(c2ccc(F)c(Cl)c2)OC1 [Example 22, 2-(3-Chloro-4-fluorophenyl)-5,5-dimethyl-[1,3,2]dioxaborinane] |
| 46% |  | CC1(C)COB(c2cccc(F)c2)OC1 [Example 23, 2-(3-Fluorophenyl)-5,5-dimethyl-[1,3,2]dioxaborinane] |
| 58% |  | Cc1csc(B2OCC(C)(C)CO2)c1 [Example 24, 5,5-Dimethyl-2-(4-methylthiophen-2-yl)-[1,3,2]dioxaborinane] |
| 52% |  | Cc1csc(B2OC(C)(C)C(C)(C)O2)c1 [Example 32, 4,4,5,5-Tetramethyl-2-(4-methylthiophen-2-yl)-[1,3,2]dioxaborolane] |
